The text below walks through data of PubChem BioAssay AID651592 (Sanford-Burnham Center for Chemical Genomics, 2012).

The target in assay [1] is Interleukin-8 (Homo sapiens) (UniProt P10145). Briefly: inhibitors of NFkB activation in CF airway cells, SAR follow-up, KKLEB cells, panel, IL8 HTRF, NFkB-GFP (AID 651592).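 Further: immortalized cystic fibrosis airway epithelial KKLEB cells with an NF-kB GFP reporter.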 As to conditions: PAF/TNFa-induced NFkB-GFP / IL8 HTRF.
Experiment in assay [2]: as above
As to conditions: PAF/TNFa-induced NFkB-GFP / IL8 HTRF, CF-PAF assay. A general note: Time-resolved FRET reads energy transfer from a long-lived donor to a nearby acceptor.

The test system of the next assay is IL8. The description is as above. As to conditions: PAF/TNFa-induced NFkB-GFP / IL8 HTRF, mean of runs, mean IC50 across panel replicates.
The mark [3] stands for this setting: mean of runs, mean IC50 across panel replicates.

Sequence of Interleukin-8 (Homo sapiens) (P10145 whole entry, looked up): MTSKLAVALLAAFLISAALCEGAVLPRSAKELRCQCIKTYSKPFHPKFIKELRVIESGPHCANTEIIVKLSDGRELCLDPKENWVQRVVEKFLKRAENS

The term IC50 denotes the concentration at which inhibition is half-maximal. A lower IC50 goes with inhibition by little substance. Consider `CCOc1ccc(NCc2cc3c(-c4ccc(F)cc4)nn(-c4ccccc4)c3[nH]c2=O)cc1`, for which the IC50 is 0.434 µM in assay [1] (IL8, PAF-induced, run 1); 0.974 µM in assay [1] (IL8, PAF-induced, run 2); 1.05 µM in assay [1] (IL8, PAF-induced, run 3); 0.181 µM in assay [1] (IL8, PAF-induced, run 4); 0.244 µM in assay [1] (IL8, PAF-induced, run 5); 0.248 µM in assay [1] (IL8, PAF-induced, run 6). The IC50 in assay [1] (IL8, TNFa-induced, run 1) is > 66 µM; in assay [1] (IL8, TNFa-induced, run 2) it was > 66 µM; in assay [1] (IL8, TNFa-induced, run 3) it was > 66 µM; in assay [1] (IL8, TNFa-induced, run 4) it was > 66 µM; in assay [1] (IL8, TNFa-induced, run 5) it was > 66 µM; in assay [1] (IL8, TNFa-induced, run 6), 14.8 µM. In addition, the IC50 stood at 9.11 µM in assay [2] (setting [3]); 14.2 µM in assay [2] (run 1); 15.7 µM in assay [2] (run 2); 18.1 µM in assay [2] (run 3); 1.81 µM in assay [2] (run 4); 2.36 µM in assay [2] (run 5). Also, the IC50 in assay [2] (run 6) worked out at 2.48 µM; with IL8 (PAF-induced), 0.522 µM; in the assay on IL8 (TNFa-induced), 57.5 µM.

On to `O=C(Nc1ccc(N2CCN(C(=O)c3ccc(F)cc3)CC2)cc1)c1ccccc1`, for which the IC50 in assay [1] (IL8, PAF-induced, run 1) is > 66 µM; in assay [1] (IL8, PAF-induced, run 2), > 66 µM; in assay [1] (IL8, PAF-induced, run 3) it was > 66 µM; in assay [1] (IL8, PAF-induced, run 4) it was > 66 µM; in assay [1] (IL8, PAF-induced, run 5), > 66 µM; in assay [1] (IL8, PAF-induced, run 6), > 66 µM. The IC50 in assay [1] (IL8, TNFa-induced, run 1) was > 66 µM; in assay [1] (IL8, TNFa-induced, run 2), > 66 µM; in assay [1] (IL8, TNFa-induced, run 3), > 66 µM; in assay [1] (IL8, TNFa-induced, run 4), > 66 µM; in assay [1] (IL8, TNFa-induced, run 5), > 66 µM; in assay [1] (IL8, TNFa-induced, run 6) it was > 66 µM. Moreover, the IC50 in assay [2] (setting [3]), in assay [2] (run 1), in assay [2] (run 2), in assay [2] (run 3), in assay [2] (run 4) and in assay [2] (run 5) was > 66 µM throughout. In addition, the IC50 (in assay [2] (run 6); in the assay on IL8 (PAF-induced); with IL8 (TNFa-induced)) was > 66 µM throughout.

`O=C(Nc1ccc(N2CCN(C(=O)c3ccccc3Cl)CC2)cc1)c1ccccc1`: the IC50 in assay [1] (IL8, PAF-induced, run 1) was > 66 µM; in assay [1] (IL8, PAF-induced, run 2) it was > 66 µM; in assay [1] (IL8, PAF-induced, run 3), 16.7 µM; in assay [1] (IL8, PAF-induced, run 4), < 10 µM; in assay [1] (IL8, PAF-induced, run 5), < 10 µM; in assay [1] (IL8, PAF-induced, run 6) it was 10.6 µM. In addition, the IC50 in assay [1] (IL8, TNFa-induced, run 1) was > 66 µM; in assay [1] (IL8, TNFa-induced, run 2), > 66 µM; in assay [1] (IL8, TNFa-induced, run 3) it was > 66 µM; in assay [1] (IL8, TNFa-induced, run 4), > 66 µM; in assay [1] (IL8, TNFa-induced, run 5), > 66 µM; in assay [1] (IL8, TNFa-induced, run 6), 8.88 µM. Moreover, the IC50 was 4.12 µM in assay [2] (setting [3]); 3.91 µM in assay [2] (run 1); 4.12 µM in assay [2] (run 2); 4.31 µM in assay [2] (run 3); < 10 µM in assay [2] (run 4); < 10 µM in assay [2] (run 5). In addition, the half-inhibitory concentration (IC50) in assay [2] (run 6) is < 10 µM; with IL8 (PAF-induced), 29.9 µM; in the assay with IL8 (TNFa-induced), 45.5 µM.

`O=C(Nc1ccc(N2CCN(C(=O)c3ccccc3Cl)CC2)cc1)c1cncc(Br)c1`: the half-maximal inhibitory concentration (IC50) is 7.62 µM in assay [1] (IL8, PAF-induced, run 1); 8.41 µM in assay [1] (IL8, PAF-induced, run 2); 11.1 µM in assay [1] (IL8, PAF-induced, run 3); 3.16 µM in assay [1] (IL8, PAF-induced, run 4); 5.73 µM in assay [1] (IL8, PAF-induced, run 5); 17 µM in assay [1] (IL8, PAF-induced, run 6). Further, the IC50 in assay [1] (IL8, TNFa-induced, run 1) is 0.275 µM; in assay [1] (IL8, TNFa-induced, run 2) it was 2.14 µM; in assay [1] (IL8, TNFa-induced, run 3), 5.45 µM; in assay [1] (IL8, TNFa-induced, run 4) it was > 66 µM; in assay [1] (IL8, TNFa-induced, run 5), 8.3 µM; in assay [1] (IL8, TNFa-induced, run 6), 14.3 µM. The IC50 stood at 2.74 µM in assay [2] (setting [3]); 1.98 µM in assay [2] (run 1); 2.48 µM in assay [2] (run 2); 2.61 µM in assay [2] (run 3); 2.72 µM in assay [2] (run 4); 2.99 µM in assay [2] (run 5). In addition, the concentration for half-maximal inhibition (IC50) was determined as 3.67 µM in assay [2] (run 6), 8.85 µM with IL8 (PAF-induced) and 16.1 µM in the assay on IL8 (TNFa-induced).

Regarding `O=C(Nc1ccc(N2CCN(C(=O)c3ccccc3F)CC2)cc1)c1cc(Br)cc(Br)c1`, the IC50 in assay [1] (IL8, PAF-induced, run 1) is > 66 µM; in assay [1] (IL8, PAF-induced, run 2), > 66 µM; in assay [1] (IL8, PAF-induced, run 3), > 66 µM; in assay [1] (IL8, PAF-induced, run 4), > 66 µM; in assay [1] (IL8, PAF-induced, run 5) it was > 66 µM; in assay [1] (IL8, PAF-induced, run 6) it was > 66 µM. Also, the IC50 in assay [1] (IL8, TNFa-induced, run 1) was > 66 µM; in assay [1] (IL8, TNFa-induced, run 2), > 66 µM; in assay [1] (IL8, TNFa-induced, run 3), > 66 µM; in assay [1] (IL8, TNFa-induced, run 4), > 66 µM; in assay [1] (IL8, TNFa-induced, run 5) it was > 66 µM; in assay [1] (IL8, TNFa-induced, run 6), > 66 µM. The IC50 in assay [2] (setting [3]), in assay [2] (run 1), in assay [2] (run 2), in assay [2] (run 3), in assay [2] (run 4) and in assay [2] (run 5) was > 66 µM throughout. In addition, the IC50 (in assay [2] (run 6); in the assay on IL8 (PAF-induced); in the assay on IL8 (TNFa-induced)) was > 66 µM throughout.
